Reference: US20110306636A1, “OXAZOLE PYRIDINE DERIVATIVES USEFUL AS S1P1 RECEPTOR AGONISTS” (Merck Serono SA, priority 2009, published 2011)
Structures can show the parent of a compound that is named as a salt. Where two headings read alike, the source gives them in different places.

Tests used:
[1] = target: T1, human S1P1 Receptor fused to the green fluorescent protein (EGFP) (Homo sapiens, UniProt P21453); test: Internalization of S1P1 in S1P1-U2OS cells by cell imaging analysis; format: cell-based; settings: 1 hour incubation, 384-well
T1 construct: host or cells: U2OS (human bone osteosarcoma epithelial cells), CMV promoter, geneticin selection
T1 sequence (P21453 with tags, fused parts or gaps): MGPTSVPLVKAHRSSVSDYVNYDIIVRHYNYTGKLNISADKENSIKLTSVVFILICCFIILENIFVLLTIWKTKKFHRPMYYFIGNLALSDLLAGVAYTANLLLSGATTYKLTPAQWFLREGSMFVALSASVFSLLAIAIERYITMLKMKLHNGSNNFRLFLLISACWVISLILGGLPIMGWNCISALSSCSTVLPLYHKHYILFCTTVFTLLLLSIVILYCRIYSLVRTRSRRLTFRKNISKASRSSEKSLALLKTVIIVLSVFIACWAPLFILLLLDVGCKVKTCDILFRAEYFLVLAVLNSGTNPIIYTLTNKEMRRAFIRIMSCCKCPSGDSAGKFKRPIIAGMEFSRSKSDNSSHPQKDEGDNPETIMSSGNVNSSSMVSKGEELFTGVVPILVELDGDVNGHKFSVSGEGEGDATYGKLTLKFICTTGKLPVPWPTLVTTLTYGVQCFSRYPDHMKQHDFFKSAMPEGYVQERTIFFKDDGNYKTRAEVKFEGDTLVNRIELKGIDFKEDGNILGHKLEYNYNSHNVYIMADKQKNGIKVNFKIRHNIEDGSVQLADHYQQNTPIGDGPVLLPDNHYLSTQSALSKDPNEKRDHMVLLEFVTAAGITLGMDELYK
Method: Cellular Functional Assays: Internalization of Sphingosine-1-Phosphate Receptor 1 (S1P1) in a Human Cell Line (U2OS) in a 384-Well Format Using a Cell Imaging Analysis.
The S1P1 internalization assay was performed in 384 well plates (Corning® 384 black with clear bottom 3712) using S1P1-U2OS cells from BioImage (C039A), a human epithelial cell line (Human Bone Osteosarcoma Epithelial Cells). These cells expressed the human S1P1 Receptor fused to the green fluorescent protein (EGFP). A standard CMV promoter (cytomegalovirus promoter) controls the expression of S1P1-EGFP and continuous expression was maintained by addition of geneticin to the culture medium.
S1P1 Receptor desensitization induced the internalization of the membrane-localized S1P1-EGFP fusion protein to endosomes, which can be monitored by cell imaging analysis.
The cells are plated in low serum medium (Dulbecco's Modified Eagle Medium (DMEM) with Glutamax-1 and high glucose, 1% Penicillin/Streptomycin, 1% Fetal Calf Serum (FCS), 0.5 mg/ml Geneticin) overnight.
The next day, S1P1-U2OS cells are incubated in 20 μl serum free medium (DMEM with Glutamax-1 and high glucose, 0.1% of fatty-acid free Bovin Serum Albumin (BSA), 10 mM, N′-2-Hydroxyethylpiperazine-N′-2 ethanesulphonic acid (HEPES) 1M) for 2 hours at 37° C./5% CO2.
The cells are then treated with 4 μl compounds/agonists (6×/3% DMSO) for a total volume of 24 μl, and plates are incubated for 1 hour at 37° C./5% CO2.
S1P1-U2OS cells are fixed with 25 μl Paraformaldehyde 8% and stained with Hoechst 33345 dye (1:1000) for 20 minutes.
They were then washed 3 times with Phosphate Buffered Saline (PBS) and plates are sealed.
The internalization of the receptor S1P1-EGFP is measured on Cellomics by calculating the “spot count per object” (“object” corresponds to nuclear and “spot” corresponds to S1P1-EGFP receptor). Internalization data were observed thanks to vHCS View and analyzed using Genedata® software.

S1P1 = S1P1 (Homo sapiens, UniProt P21453); test: Receptor binding assay, [33P]sphingosine 1-phosphate competition, S1P1
Chain of S1P1 (P21453 whole entry, species assumed): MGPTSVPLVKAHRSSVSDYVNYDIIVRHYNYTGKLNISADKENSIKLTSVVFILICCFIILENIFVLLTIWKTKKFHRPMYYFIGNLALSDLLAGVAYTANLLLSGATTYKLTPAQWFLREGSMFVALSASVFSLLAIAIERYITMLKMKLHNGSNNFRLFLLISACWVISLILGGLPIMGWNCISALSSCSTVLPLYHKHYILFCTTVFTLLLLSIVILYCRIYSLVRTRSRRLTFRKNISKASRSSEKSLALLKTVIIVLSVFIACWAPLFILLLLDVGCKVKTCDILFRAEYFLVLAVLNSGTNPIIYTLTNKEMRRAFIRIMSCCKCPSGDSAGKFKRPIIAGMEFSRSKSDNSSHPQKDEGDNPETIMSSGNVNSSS
Method: (§1) Membranes Preparation: Membranes were prepared from CHO cells expressing S1P1 or S1P3 for use in ligand and 35S-GTPγS binding studies. Cells were suspended in 50 mM TRIS, pH 7.4, 2 mM EDTA, 250 mM Sucrose (buffer A) and 1× Complete protease inhibitor cocktail (Roche), and disrupted at 4° C. by N2 decompression using a cell disruption bomb (Parr Instrument). Following centrifugation at 1000 RPM for 10 min at 4° C., the supernatant was diluted (2×) in buffer A and centrifuged again at 19000 RPM for 75 min at 4° C. The pellet was then suspended in 10 mM HEPES, pH 7.4, 1 mM EDTA, 250 mM Sucrose (Buffer B), and 1× Complete EDTA-free protease inhibitor cocktail and homogenized using a potter. Membranes were flash frozen in liquid N2 and stored at −80° C.
(§2) Receptor binding assay: [33P]sphingosine 1-phosphate (3000 Ci/mmol; American Radiolabeled Chemicals, Inc.) was added to test compounds in 20% DMSO by competition. Membranes and WGA SPA beads (GE Healthcare) were added to give a final volume of 100 μl in 96-well plates or 50 μl in 384-well plates with assay concentrations of 30 pM or 15 pM [33P]sphingosine 1-phosphate (respectively for S1P1 or S1P3), 50 mM HEPES, pH 7.5, 5 mM MgCl2, 100 mM NaCl, 0.4% fatty acid-free BSA, 1-5 μg/well of proteins in 96-well plates vs 0.6-1 μg/well of proteins in 384-well plates and 100 μg/well of WGA SPA beads in 96-well plates vs 75 μg/well of WGA SPA beads in 384-well plates. Binding was performed for 60 min at RT on a shaker and bound radioactivity was measured on a PerkinElmer 1450 MicroBeta counter. Triplicate samples were averaged and normalized as purcentage of inhibition relative to total binding (only DMSO in well) and non specific binding (1000-fold excess of unlabeled S1P). Binding data were analyzed using the GraphPad Prism program or Genedata software.

S1P3 = S1P3 (Homo sapiens, UniProt Q99500); test: Receptor binding assay, [33P]sphingosine 1-phosphate competition, S1P3
Chain of S1P3 (Q99500 whole entry, species assumed): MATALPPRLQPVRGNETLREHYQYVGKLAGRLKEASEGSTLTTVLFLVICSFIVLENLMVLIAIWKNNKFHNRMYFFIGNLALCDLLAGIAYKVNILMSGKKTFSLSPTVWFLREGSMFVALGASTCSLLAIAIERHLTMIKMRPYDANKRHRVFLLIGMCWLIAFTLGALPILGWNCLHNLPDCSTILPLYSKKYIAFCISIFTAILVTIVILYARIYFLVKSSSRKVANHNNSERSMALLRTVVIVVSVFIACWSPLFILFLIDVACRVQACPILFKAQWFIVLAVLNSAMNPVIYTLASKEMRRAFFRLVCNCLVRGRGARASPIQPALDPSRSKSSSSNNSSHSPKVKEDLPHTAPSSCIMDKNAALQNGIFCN
Method: as §1, §2

[2] = 96 well-plate, read-out: S1P1 binding IC50 (M) (96 well-plate)
[3] = 384 well-plate, read-out: S1P1 binding IC50 (M) (384 well-plate)
[4] = 96 well-plate, read-out: S1P3 binding IC50 (M) (96 well-plate)
[5] = 384 well-plate, read-out: S1P3 binding IC50 (M) (384 well-plate)

Compound	EC50 [1] [nM]	IC50 (S1P1; [2]) [M]	IC50 (S1P1; [3]) [M]	IC50 (S1P3; [4]) [M]	IC50 (S1P3; [5]) [M]
COCc1cc(-c2nc(-c3cnc(N[C@H]4CCC[C@H]4C(=O)O)c(Cl)c3)no2)ccc1-c1ccccc1C (relative stereo) [Example 84, cis-2-(3-chloro-5-(5-(2-(methoxymethyl)-2′-methylbiphenyl-4-yl)-1,2,4-oxadiazol-3-yl)pyridin-2-ylamino)cyclopentanecarboxylic acid]	427	1.35e-08	–	–	–
COCc1cc(-c2nc(-c3ccc(Cl)nc3)no2)ccc1-c1ccccc1C [Example 40, 2-chloro-5-{5-[2-(methoxymethyl)-2′-methylbiphenyl-4-yl]-1,2,4-oxadiazol-3-yl}pyridine]	307	5.49e-08	–	–	–
COCc1cc(-c2nc(-c3ccc(NCCCO)nc3)no2)ccc1-c1ccccc1C [Example 41, 3-[(5-{5-[2-(methoxymethyl)-2′-methylbiphenyl-4-yl]-1,2,4-oxadiazol-3-yl}pyridin-2-yl)amino]propan-1-ol]	84.2	6.72e-09	1.72e-08	–	–
COCc1cc(-c2nc(-c3cnc(N)c(Cl)c3)no2)ccc1N1CCCCC1C (stereo not shown) [Example 42, 3-chloro-5-{5-[3-(methoxymethyl)-4-(2-methylpiperidin-1-yl)phenyl]-1,2,4-oxadiazol-3-yl}pyridin-2-amine]	47.9	2.89e-09	–	–	–
CCc1ccccc1-c1ccc(-c2nc(-c3cnc(N)c(Cl)c3)no2)cc1COC [Example 43, 3-chloro-5-{5-[2′-ethyl-2-(methoxymethyl)biphenyl-4-yl]-1,2,4-oxadiazol-3-yl}pyridin-2-amine]	33.5	2.44e-09	4.1e-08	1.12e-05	–
COCc1cc(-c2nc(-c3ccc(NCC(C)O)nc3)no2)ccc1-c1ccccc1C (stereo not shown) [Example 44, 1-[(5-{5-[2-(methoxymethyl)-2′-methylbiphenyl-4-yl]-1,2,4-oxadiazol-3-yl}pyridin-2-yl)amino]propan-2-ol]	56	4.22e-09	3.03e-08	–	–
COCc1cc(-c2nc(-c3ccc(NCC(O)CO)nc3)no2)ccc1-c1ccccc1C (stereo not shown) [Example 45, 3-[(5-{5-[2-(methoxymethyl)-2′-methylbiphenyl-4-yl]-1,2,4-oxadiazol-3-yl}pyridin-2-yl)amino]propane-1,2-diol, hydrochloride salt]	22.4	2.88e-09	1.4e-08	9.31e-06	7.94e-06
COCc1cc(-c2nc(-c3cnc(N)c(Cl)c3)no2)ccc1-c1ccccc1F [Example 46, 3-chloro-5-{5-[2′-fluoro-2-(methoxymethyl)biphenyl-4-yl]-1,2,4-oxadiazol-3-yl}pyridin-2-amine]	59.3	3.31e-09	4.42e-08	7.21e-06	–
COCc1cc(-c2nc(-c3cnc(NCCC(=O)O)c(Cl)c3)no2)ccc1-c1ccccc1F [Example 48, N-(3-chloro-5-{5-[2′-fluoro-2-(methoxymethyl)biphenyl-4-yl]-1,2,4-oxadiazol-3-yl}pyridin-2-yl)-beta-alanine, hydrochloride salt]	28.7	3.15e-09	–	1.37e-06	–
COCc1cc(-c2nc(-c3ccc(NCCO)nc3)no2)ccc1-c1ccccc1Cl [Example 49, 2-[(5-{5-[2′-chloro-2-(methoxymethyl)biphenyl-4-yl]-1,2,4-oxadiazol-3-yl}pyridin-2-yl)amino]ethanol]	61.5	3.71e-09	2.4e-08	–	–
COCc1cc(-c2nc(-c3cnc(NCCC(=O)O)c(Cl)c3)no2)ccc1-c1ccccc1Cl [Example 50, N-(3-chloro-5-{5-[2′-chloro-2-(methoxymethyl)biphenyl-4-yl]-1,2,4-oxadiazol-3-yl}pyridin-2-yl)-beta-alanine, hydrochloride salt]	17.3	1.58e-09	1.98e-08	5.82e-06	9.45e-06
COCc1cc(-c2nc(-c3ccc(NCCCCO)nc3)no2)ccc1-c1ccccc1C [Example 51, 4-[(5-{5-[2-(methoxymethyl)-2′-methylbiphenyl-4-yl]-1,2,4-oxadiazol-3-yl}pyridin-2-yl)amino]butan-1-ol, hydrochloride salt]	85.3	1.05e-08	–	1.79e-05	2e-05
Cc1ccccc1-c1ccc(-c2nc(-c3cnc(NCCC(=O)O)c(Cl)c3)no2)cc1C(F)(F)F [Example 61, N-(3-chloro-5-{5-[2′-methyl-2-(trifluoromethyl)biphenyl-4-yl]-1,2,4-oxadiazol-3-yl}pyridin-2-yl)-beta-alanine, hydrochloride salt]	198	5.28e-09	9.48e-09	–	–
COCc1cc(-c2nc(-c3cnc(NCCO)c(Cl)c3)no2)ccc1-c1ccccc1F [Example 62, 2-[(3-chloro-5-{5-[2′-fluoro-2-(methoxymethyl)biphenyl-4-yl]-1,2,4-oxadiazol-3-yl}pyridin-2-yl)amino]ethanol]	90.8	3.1e-09	7.54e-09	–	–
Cc1cc(-c2nc(-c3cnc(NCCC(=O)O)c(Cl)c3)no2)ccc1-c1ccccc1C(F)(F)F [Example 70, N-(3-chloro-5-{5-[2-methyl-2′-(trifluoromethyl)biphenyl-4-yl]-1,2,4-oxadiazol-3-yl}pyridin-2-yl)-beta-alanine, hydrochloride salt]	93.4	–	1.72e-08	–	–
Cc1ccccc1-c1ccc(-c2nc(-c3cnc(NCCC(=O)O)c(Cl)c3)no2)cc1C [Example 73, N-{3-chloro-5-[5-(2,2′-dimethylbiphenyl-4-yl)-1,2,4-oxadiazol-3-yl]pyridin-2-yl}-beta-alanine, hydrochloride salt]	173	–	1.47e-08	–	–
Cc1cc(-c2nc(-c3ccnc(CN(C)CC(=O)O)c3)no2)ccc1-c1ccccc1C(F)(F)F [Example 80, 2-(methyl((4-(5-(2-methyl-2′-(trifluoromethyl)biphenyl-4-yl)-1,2,4-oxadiazol-3-yl)pyridin-2-yl)methyl)amino)acetic acid]	93.6	–	2.76e-08	–	–
Cc1cc(-c2nc(-c3ccc(CN(C)CC(=O)O)nc3)no2)ccc1-c1ccccc1C(F)(F)F [Example 81, 2-(methyl((5-(5-(2-methyl-2′-(trifluoromethyl)biphenyl-4-yl)-1,2,4-oxadiazol-3-yl)pyridin-2-yl)methyl)amino)acetic acid]	170	–	2.5e-08	–	–
COCCCNc1ncc(-c2noc(-c3ccc(-c4ccccc4C)c(COC)c3)n2)cc1Cl [Example 82, 3-chloro-5-(5-(2-(methoxymethyl)-2′-methylbiphenyl-4-yl)-1,2,4-oxadiazol-3-yl)-N-(3-methoxypropyl)pyridin-2-amine]	128	–	4.56e-08	–	–
COCc1cc(-c2nc(-c3cnc(NCCCO)c(Cl)c3)no2)ccc1-c1ccccc1C [Example 83, 3-(3-chloro-5-(5-(2-(methoxymethyl)-2′-methylbiphenyl-4-yl)-1,2,4-oxadiazol-3-yl)pyridin-2-ylamino)propan-1-ol]	46.7	2.9e-09	–	–	–
